Columns and labels:
Scirpus juncoides [1] = test: Herbicidal efficacy on paddy field weeds of pre-emergence stage (Pre), Test Example 1; format: in vivo; conditions: 1000 g/ha as active ingredient, examined after 21 days
How it was run: (§1)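 Pre-emergence paddy test: 1000 g/ha active ingredient, formulated and water-diluted, dropped onto 5 cm floodwater one day after sowing both weeds in clay loam. After 21 days in greenhouse, inhibition relative to untreated control rated on 0 (0%) to 5 (100%) scale.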

Lindernia procumbens [2] = test: as above; format: in vivo; conditions: 1000 g/ha as active ingredient, examined after 21 days
How it was run: as §1

[3] = system: transplanted paddy-rice (rice species: Nihonbare); test: Test of phytotoxicity on transplanted paddy-rice, Test Example 3; format: in vivo; conditions: two-leaf stage seedlings, 1000 g/ha as active ingredient, applied 5 days after transplantation, examined after 21 days
From the text: Criteria for herbicidal efficacy (growth inhibiting degree) and phytotoxicity. • 5 . . . 100% herbicidal effect, phytotoxicity. • 4 . . . 90%-99% herbicidal effect, phytotoxicity. • 3 . . . 70%-89% herbicidal effect, phytotoxicity. • 2 . . . 40%-69% herbicidal effect, phytotoxicity. • 1 . . . 1%-39% herbicidal effect, phytotoxicity. • 0 . . . 0% herbicidal effect, phytotoxicity.
75 cm^2 plastic pots were filled with the soil (clay loam) and filled with water depth of 5 cm and 2 rice plant seedlings (rice species: Nihonbare) at two-leaf stage were transplanted therein. They were brought up in a greenhouse and, after five days from the transplantation, predetermined effective dosage (1000 g/ha in terms of active ingredient) of formulations comprising a compound of the present invention as an active ingredient was applied to the pot water. Then, they were brought up in a greenhouse and the phytotoxicity was examined after 21 days from the treatment by comparing with the result of an untreated group according to the criteria of Test Example 1. In the table, “-” means that the test was not performed.

Scirpus juncoides [4] = test: Herbicidal effect on paddy field weeds of post-emergence stage (Post), Test Example 2; format: in vivo; conditions: one-leaf stage, 1000 g/ha as active ingredient, examined after 21 days
How it was run: (§2)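 Post-emergence paddy test: formulated compound added to 5 cm standing water at 1000 g/ha a.i. when weeds reached one-leaf stage in clay loam pots in greenhouse. Growth inhibition rated 21 days later versus untreated control on a 0 (0%) to 5 (100%) scale.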

Echinochloa crus-galli = test: Herbicidal effect on paddy field weeds of post-emergence stage (Post), Test Example 2; format: in vivo; conditions: one-leaf stage, 1000 g/ha as active ingredient, examined after 21 days
How it was run: as §2

Lindernia procumbens [5] = test: as above; format: in vivo; conditions: one-leaf stage, 1000 g/ha as active ingredient, examined after 21 days
How it was run: as §2

Row | SMILES | Scirpus juncoides pre (herbicidal effect) (Scirpus juncoides [1]) | Lindernia procumbens pre (herbicidal effect) (Lindernia procumbens [2]) | Rice (phytotoxicity) [3] | Scirpus juncoides post (herbicidal effect) (Scirpus juncoides [4]) | melting point [°C] | Echinochloa crus-galli post (herbicidal effect) (Echinochloa crus-galli) | Lindernia procumbens post (herbicidal effect) (Lindernia procumbens [5])
1 | COC(=O)N(c1ccccc1CN1CC(C)(C)COC1=S)S(=O)(=O)C(F)(F)F [Compound No. 1-35, 5,5-dimethyl-3-(2-[N-(methoxycarbonyl)-N-(trifluoromethanesulfonyl)amino]benzyl)-[1,3]-oxazinane-2-thione] | 4 (90%-99% herbicidal effect, phytotoxicity) | 4 (90%-99% herbicidal effect, phytotoxicity) | 2 (40%-69% herbicidal effect, phytotoxicity) | 4 (90%-99% herbicidal effect, phytotoxicity) | – | – | –
2 | CCOCN(c1ccccc1CN1CCC(c2ccccc2)OC1=O)S(=O)(=O)C(F)(F)F (stereo not shown) [Compound No. 1-248, 6-phenyl-3-{2-[N-(ethoxymethyl)-N-(trifluoromethanesulfonyl)amino]benzyl)-[1,3]-oxazinan-2-one] | – | – | – | – | 115.6 | – | –
3 | CC(C)COC(=O)N(c1ccccc1CN1CCC(C)COC1=O)S(=O)(=O)C(F)(F)F (stereo not shown) [Compound No. 2-28, 3-(2-[N-(isobutoxycarbonyl)-N-(trifluoromethanesulfonyl)amino]benzyl)-6-methyl-[1,3]-oxazepan-2-one] | 4 (90%-99% herbicidal effect, phytotoxicity) | 4 (90%-99% herbicidal effect, phytotoxicity) | 3 (70%-89% herbicidal effect, phytotoxicity) | 4 (90%-99% herbicidal effect, phytotoxicity) | – | – | –
4 | CCCOC(=O)N(c1ccccc1CN1CCCOC1=O)S(=O)(=O)C(F)(F)F [Compound No. 1-4, 3-{2-[N-(propoxycarbonyl)-N -(trifluoromethanesulfonyl)amino]benzyl)-[1,3]-oxazinan-2-one] | 4 (90%-99% herbicidal effect, phytotoxicity) | 4 (90%-99% herbicidal effect, phytotoxicity) | 3 (70%-89% herbicidal effect, phytotoxicity) | 4 (90%-99% herbicidal effect, phytotoxicity) | – | – | –
5 | O=C1OC(c2ccccc2)CCN1Cc1ccccc1NS(=O)(=O)C(F)(F)F (stereo not shown) [Compound No. 1-239, 6-phenyl-3-[2-(trifluoromethanesulfonylamino)benzyl]-[1,3]-oxazinan-2-one] | – | 5 (100% herbicidal effect, phytotoxicity) | – | 4 (90%-99% herbicidal effect, phytotoxicity) | 152 | – | –
6 | CC1(C)COC(=S)N(Cc2ccccc2NS(=O)(=O)C(F)(F)F)C1 [Compound No. 1-34, 5,5-dimethyl-3-[2-(trifluoromethanesulfonylamino)benzyl]-[1,3]-oxazinan-2-thione] | 4 (90%-99% herbicidal effect, phytotoxicity) | 4 (90%-99% herbicidal effect, phytotoxicity) | – | 4 (90%-99% herbicidal effect, phytotoxicity) | 129.9 | – | –
7 | CCC1(C)CCN(Cc2ccccc2NS(=O)(=O)C(F)(F)F)C(=O)O1 (stereo not shown) [Compound 1-69] | 4 (90%-99% herbicidal effect, phytotoxicity) | 4 (90%-99% herbicidal effect, phytotoxicity) | – | 4 (90%-99% herbicidal effect, phytotoxicity) | – | 4 (90%-99% herbicidal effect, phytotoxicity) | 4 (90%-99% herbicidal effect, phytotoxicity)
8 | CCCCOC(=O)N(c1ccccc1CN1CCCOC1=S)S(=O)(=O)C(F)(F)F [Compound 1-16] | 4 (90%-99% herbicidal effect, phytotoxicity) | 4 (90%-99% herbicidal effect, phytotoxicity) | – | 4 (90%-99% herbicidal effect, phytotoxicity) | – | 4 (90%-99% herbicidal effect, phytotoxicity) | 4 (90%-99% herbicidal effect, phytotoxicity)
9 | CC(C)COC(=O)N(c1ccccc1CN1CCCOC1=O)S(=O)(=O)C(F)(F)F [Compound 1-6] | 4 (90%-99% herbicidal effect, phytotoxicity) | 4 (90%-99% herbicidal effect, phytotoxicity) | – | 4 (90%-99% herbicidal effect, phytotoxicity) | – | 4 (90%-99% herbicidal effect, phytotoxicity) | 4 (90%-99% herbicidal effect, phytotoxicity)
10 | COC(=O)N(c1ccccc1CN1CCC(C)COC1=O)S(=O)(=O)C(F)(F)F (racemic) [2-24] | 4 (90%-99% herbicidal effect, phytotoxicity) | 4 (90%-99% herbicidal effect, phytotoxicity) | – | 4 (90%-99% herbicidal effect, phytotoxicity) | – | 4 (90%-99% herbicidal effect, phytotoxicity) | 4 (90%-99% herbicidal effect, phytotoxicity)
11 | CCCCC(CC)COC(=O)N(c1ccccc1CN1CCC(CC)(CC)OC1=O)S(=O)(=O)C(F)(F)F (stereo not shown) [Compound 1-109] | 4 (90%-99% herbicidal effect, phytotoxicity) | 4 (90%-99% herbicidal effect, phytotoxicity) | – | 4 (90%-99% herbicidal effect, phytotoxicity) | – | 4 (90%-99% herbicidal effect, phytotoxicity) | 4 (90%-99% herbicidal effect, phytotoxicity)
12 | CC(C)COC(=O)N(c1ccccc1CN1CCCCOC1=O)S(=O)(=O)C(F)(F)F [2-6] | 4 (90%-99% herbicidal effect, phytotoxicity) | 4 (90%-99% herbicidal effect, phytotoxicity) | – | 4 (90%-99% herbicidal effect, phytotoxicity) | – | 4 (90%-99% herbicidal effect, phytotoxicity) | 4 (90%-99% herbicidal effect, phytotoxicity)
13 | CCCC1(CC)CCN(Cc2ccccc2NS(=O)(=O)C(F)(F)F)C(=O)O1 (racemic) [Compound 1-494] | 5 (100% herbicidal effect, phytotoxicity) | 5 (100% herbicidal effect, phytotoxicity) | – | 4 (90%-99% herbicidal effect, phytotoxicity) | – | 4 (90%-99% herbicidal effect, phytotoxicity) | 5 (100% herbicidal effect, phytotoxicity)
